The source made the active and inactive calls.
Legend:
[1] = molecular target: T1, Mitogen-activated protein kinase kinase kinase kinase 2 (Homo sapiens, UniProt Q12851)
T1 sequence (Q12851 whole entry): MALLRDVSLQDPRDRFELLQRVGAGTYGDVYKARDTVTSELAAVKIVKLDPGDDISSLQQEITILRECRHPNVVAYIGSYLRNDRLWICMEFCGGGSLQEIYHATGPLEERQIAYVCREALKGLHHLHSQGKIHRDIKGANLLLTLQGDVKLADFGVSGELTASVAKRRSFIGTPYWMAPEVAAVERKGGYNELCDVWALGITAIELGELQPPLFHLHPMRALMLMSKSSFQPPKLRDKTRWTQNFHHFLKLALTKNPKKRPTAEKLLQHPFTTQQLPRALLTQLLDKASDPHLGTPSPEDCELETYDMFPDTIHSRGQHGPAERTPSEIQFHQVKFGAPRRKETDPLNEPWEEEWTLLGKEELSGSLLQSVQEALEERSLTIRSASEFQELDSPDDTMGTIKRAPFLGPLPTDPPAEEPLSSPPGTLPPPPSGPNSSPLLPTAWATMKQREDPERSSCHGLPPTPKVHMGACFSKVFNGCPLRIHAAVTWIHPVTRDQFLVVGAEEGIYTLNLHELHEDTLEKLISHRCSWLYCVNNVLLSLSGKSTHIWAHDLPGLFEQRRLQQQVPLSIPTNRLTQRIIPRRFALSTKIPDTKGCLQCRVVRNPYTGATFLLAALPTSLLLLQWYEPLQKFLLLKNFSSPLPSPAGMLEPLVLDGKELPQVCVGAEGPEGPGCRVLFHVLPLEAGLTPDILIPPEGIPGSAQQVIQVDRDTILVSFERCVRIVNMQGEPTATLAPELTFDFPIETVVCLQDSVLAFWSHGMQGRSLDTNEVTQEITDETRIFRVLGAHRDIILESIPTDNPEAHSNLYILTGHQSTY

[2] = molecular target: T2, Succinate--CoA ligase [ADP-forming] subunit beta, mitochondrial (Homo sapiens, UniProt Q9P2R7)
T2 sequence (Q9P2R7 whole entry): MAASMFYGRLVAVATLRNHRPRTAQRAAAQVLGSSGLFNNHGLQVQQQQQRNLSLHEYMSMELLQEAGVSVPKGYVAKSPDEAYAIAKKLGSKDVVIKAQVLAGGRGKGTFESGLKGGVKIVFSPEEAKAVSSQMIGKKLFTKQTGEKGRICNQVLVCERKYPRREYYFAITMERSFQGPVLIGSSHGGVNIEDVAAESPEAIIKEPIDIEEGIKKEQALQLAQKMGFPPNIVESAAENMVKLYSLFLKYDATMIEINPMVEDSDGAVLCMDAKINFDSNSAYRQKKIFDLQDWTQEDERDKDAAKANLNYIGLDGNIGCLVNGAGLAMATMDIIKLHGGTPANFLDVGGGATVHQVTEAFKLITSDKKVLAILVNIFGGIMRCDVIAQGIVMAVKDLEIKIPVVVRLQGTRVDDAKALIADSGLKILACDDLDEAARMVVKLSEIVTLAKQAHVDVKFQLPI

[3] = molecular target: Cyclin-dependent kinase 6 (Homo sapiens, UniProt Q00534)
Sequence of Cyclin-dependent kinase 6 (Q00534 whole entry): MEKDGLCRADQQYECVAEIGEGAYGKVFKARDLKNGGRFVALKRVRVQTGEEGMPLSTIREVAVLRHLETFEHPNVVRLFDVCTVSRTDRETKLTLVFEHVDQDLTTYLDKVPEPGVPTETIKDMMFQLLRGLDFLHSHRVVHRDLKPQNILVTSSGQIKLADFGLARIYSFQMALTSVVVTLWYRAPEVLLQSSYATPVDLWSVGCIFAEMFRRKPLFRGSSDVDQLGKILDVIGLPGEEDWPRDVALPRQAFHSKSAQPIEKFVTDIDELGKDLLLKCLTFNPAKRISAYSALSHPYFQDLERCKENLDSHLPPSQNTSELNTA

[4] = molecular target: STE20-like serine/threonine-protein kinase (Homo sapiens, UniProt Q9H2G2)
Sequence of STE20-like serine/threonine-protein kinase (Q9H2G2 whole entry): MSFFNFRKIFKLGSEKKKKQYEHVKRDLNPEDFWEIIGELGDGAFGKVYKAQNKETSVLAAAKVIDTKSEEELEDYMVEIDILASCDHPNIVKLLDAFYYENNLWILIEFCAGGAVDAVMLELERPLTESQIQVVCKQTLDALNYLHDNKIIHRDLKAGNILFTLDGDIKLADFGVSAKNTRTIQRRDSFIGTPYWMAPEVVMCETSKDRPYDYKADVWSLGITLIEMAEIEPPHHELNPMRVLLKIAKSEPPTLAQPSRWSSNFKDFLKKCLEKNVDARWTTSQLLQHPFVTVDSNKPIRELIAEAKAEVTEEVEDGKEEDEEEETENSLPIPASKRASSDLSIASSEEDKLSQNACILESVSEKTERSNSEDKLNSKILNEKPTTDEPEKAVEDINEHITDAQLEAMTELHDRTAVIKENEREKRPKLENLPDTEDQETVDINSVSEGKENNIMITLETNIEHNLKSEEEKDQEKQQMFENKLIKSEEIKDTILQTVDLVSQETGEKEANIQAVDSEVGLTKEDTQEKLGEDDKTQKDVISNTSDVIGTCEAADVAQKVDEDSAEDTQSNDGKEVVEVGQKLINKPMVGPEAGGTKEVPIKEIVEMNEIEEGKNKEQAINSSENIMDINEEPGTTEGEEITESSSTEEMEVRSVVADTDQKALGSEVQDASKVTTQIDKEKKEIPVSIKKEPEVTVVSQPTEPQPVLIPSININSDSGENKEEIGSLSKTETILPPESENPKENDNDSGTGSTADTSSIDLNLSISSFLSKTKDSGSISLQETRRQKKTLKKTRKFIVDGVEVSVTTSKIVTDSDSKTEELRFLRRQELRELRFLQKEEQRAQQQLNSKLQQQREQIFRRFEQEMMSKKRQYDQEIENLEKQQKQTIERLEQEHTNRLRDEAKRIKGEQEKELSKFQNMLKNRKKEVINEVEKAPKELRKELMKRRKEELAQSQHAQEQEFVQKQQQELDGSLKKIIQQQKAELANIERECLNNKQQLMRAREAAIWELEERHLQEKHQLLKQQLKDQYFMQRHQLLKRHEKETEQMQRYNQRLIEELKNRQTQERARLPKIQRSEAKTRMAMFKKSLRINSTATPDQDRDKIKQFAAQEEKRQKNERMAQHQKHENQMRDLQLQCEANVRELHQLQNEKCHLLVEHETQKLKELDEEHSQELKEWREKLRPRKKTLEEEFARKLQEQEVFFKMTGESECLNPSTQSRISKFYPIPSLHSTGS

[5] = molecular target: Serine/threonine-protein kinase/endoribonuclease IRE1 (Homo sapiens, UniProt O75460)
Sequence of Serine/threonine-protein kinase/endoribonuclease IRE1 (O75460 whole entry): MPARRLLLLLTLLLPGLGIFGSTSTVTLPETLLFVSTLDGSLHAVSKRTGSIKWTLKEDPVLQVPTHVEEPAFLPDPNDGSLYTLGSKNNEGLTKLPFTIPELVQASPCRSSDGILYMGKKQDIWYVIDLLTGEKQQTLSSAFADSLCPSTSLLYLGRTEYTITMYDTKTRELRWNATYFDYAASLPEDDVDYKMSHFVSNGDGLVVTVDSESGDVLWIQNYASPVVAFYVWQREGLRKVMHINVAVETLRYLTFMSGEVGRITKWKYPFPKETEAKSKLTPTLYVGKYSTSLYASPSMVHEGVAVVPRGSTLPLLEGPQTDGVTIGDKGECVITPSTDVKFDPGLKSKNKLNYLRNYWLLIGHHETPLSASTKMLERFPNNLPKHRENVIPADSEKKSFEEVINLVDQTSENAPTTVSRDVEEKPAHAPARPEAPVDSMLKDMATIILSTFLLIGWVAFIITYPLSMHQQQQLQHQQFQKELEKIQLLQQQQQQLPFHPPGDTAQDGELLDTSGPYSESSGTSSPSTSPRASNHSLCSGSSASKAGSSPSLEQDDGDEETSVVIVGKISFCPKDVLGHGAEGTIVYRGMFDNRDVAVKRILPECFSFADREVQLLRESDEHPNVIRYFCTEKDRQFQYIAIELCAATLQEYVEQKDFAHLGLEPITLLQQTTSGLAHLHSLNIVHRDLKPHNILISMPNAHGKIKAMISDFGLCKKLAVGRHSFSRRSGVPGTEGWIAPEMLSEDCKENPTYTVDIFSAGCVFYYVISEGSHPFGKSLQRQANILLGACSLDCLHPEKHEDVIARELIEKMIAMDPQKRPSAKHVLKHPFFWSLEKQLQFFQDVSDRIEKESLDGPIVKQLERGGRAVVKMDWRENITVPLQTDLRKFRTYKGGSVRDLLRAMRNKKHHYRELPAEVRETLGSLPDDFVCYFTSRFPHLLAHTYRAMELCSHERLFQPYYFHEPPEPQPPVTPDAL

[6] = molecular target: T3, Rab-like protein 3 (Homo sapiens, UniProt Q5HYI8)
T3 sequence (Q5HYI8 whole entry): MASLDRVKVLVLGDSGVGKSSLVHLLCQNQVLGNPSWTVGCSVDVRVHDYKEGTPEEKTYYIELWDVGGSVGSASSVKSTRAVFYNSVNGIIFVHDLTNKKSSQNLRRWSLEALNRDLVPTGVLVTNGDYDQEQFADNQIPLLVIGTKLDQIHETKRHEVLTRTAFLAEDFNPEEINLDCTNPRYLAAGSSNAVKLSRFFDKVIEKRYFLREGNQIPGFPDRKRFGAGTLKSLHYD

[7] = molecular target: T4, Serine/threonine-protein kinase Nek1 (Homo sapiens, UniProt Q96PY6)
T4 sequence (Q96PY6 whole entry): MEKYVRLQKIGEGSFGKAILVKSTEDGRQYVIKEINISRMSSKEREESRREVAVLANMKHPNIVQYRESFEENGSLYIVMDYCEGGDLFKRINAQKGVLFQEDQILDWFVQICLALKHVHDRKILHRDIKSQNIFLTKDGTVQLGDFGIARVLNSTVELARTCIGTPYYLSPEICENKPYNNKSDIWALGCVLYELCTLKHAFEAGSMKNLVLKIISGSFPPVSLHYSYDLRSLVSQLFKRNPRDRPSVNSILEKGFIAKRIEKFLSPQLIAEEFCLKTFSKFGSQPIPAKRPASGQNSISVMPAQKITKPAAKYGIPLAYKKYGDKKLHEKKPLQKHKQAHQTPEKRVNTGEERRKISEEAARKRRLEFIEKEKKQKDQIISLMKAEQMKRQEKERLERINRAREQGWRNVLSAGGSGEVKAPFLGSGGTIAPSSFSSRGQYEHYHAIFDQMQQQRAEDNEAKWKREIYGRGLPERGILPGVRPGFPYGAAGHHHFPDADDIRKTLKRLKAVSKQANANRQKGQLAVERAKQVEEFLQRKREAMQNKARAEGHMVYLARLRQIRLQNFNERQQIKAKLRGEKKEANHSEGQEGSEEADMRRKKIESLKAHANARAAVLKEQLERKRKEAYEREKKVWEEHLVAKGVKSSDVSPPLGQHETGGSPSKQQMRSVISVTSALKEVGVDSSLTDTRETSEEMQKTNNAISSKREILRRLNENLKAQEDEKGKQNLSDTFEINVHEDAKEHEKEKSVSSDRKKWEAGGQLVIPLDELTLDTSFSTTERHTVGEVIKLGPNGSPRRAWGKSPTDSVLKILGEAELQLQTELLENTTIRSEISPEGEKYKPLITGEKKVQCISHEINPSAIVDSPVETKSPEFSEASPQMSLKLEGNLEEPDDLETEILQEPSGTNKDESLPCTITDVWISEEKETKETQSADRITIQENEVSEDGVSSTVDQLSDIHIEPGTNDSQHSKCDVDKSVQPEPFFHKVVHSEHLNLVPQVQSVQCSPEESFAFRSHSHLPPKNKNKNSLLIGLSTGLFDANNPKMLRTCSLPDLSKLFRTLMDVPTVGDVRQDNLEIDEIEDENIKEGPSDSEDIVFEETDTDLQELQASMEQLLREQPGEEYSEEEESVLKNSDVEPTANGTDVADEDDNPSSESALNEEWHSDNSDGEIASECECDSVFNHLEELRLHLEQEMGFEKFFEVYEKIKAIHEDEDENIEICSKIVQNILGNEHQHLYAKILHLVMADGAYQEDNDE

[8] = molecular target: Obg-like ATPase 1 (Homo sapiens, UniProt Q9NTK5)
Sequence of Obg-like ATPase 1 (Q9NTK5 whole entry, looked up): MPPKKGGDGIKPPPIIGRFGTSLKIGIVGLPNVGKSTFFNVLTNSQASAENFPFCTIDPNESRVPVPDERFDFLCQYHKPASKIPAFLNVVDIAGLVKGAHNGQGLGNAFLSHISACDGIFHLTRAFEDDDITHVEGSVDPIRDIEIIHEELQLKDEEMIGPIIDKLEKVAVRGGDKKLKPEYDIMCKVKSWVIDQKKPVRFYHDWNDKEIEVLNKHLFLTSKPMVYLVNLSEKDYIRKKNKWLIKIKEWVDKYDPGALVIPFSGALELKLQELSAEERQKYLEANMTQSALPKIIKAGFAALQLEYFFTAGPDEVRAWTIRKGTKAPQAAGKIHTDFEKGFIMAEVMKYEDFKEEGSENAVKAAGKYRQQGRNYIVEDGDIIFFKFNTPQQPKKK
Also: in the data inactive means no Kd found up to 30 µM.

Row | SMILES | Kd [1] | Kd [2] | Kd [3] | Kd [4] | Kd [5] | Kd [6] | Kd [7] | Kd [8]
1 | COc1cccc2cc(-c3nc([C@H]4CC[C@H](C(=O)O)CC4)n4ncnc(N)c34)[nH]c12 [OSI-027] | > 30 µM (inactive) | > 30 µM (inactive) | > 30 µM (inactive) | > 30 µM (inactive) | > 30 µM (inactive) | > 30 µM (inactive) | > 30 µM (inactive) | > 30 µM (inactive)
2 | O=C(NC[C@H](O)CO)c1ccncc1Nc1ccc(I)cc1F [PIMASERTIB] | > 30 µM (inactive) | > 30 µM (inactive) | > 30 µM (inactive) | > 30 µM (inactive) | > 30 µM (inactive) | > 30 µM (inactive) | > 30 µM (inactive) | > 30 µM (inactive)
3 | COc1cc(F)c(F)c(Nc2ccc(I)cc2F)c1NS(=O)(=O)C1(C[C@H](O)CO)CC1 [REFAMETINIB] | > 30 µM (inactive) | > 30 µM (inactive) | > 30 µM (inactive) | > 30 µM (inactive) | > 30 µM (inactive) | > 30 µM (inactive) | > 30 µM (inactive) | > 30 µM (inactive)
4 | COCCN1CCN(Cc2ccc(-c3n[nH]c4c3C(=O)c3c(NC(=O)NN5CCOCC5)cccc3-4)cc2)CC1 [RGB-286638] | > 30 µM (inactive) | > 30 µM (inactive) | > 30 µM (inactive) | > 30 µM (inactive) | > 30 µM (inactive) | > 30 µM (inactive) | > 30 µM (inactive) | > 30 µM (inactive)
5 | C=CC(=O)Nc1cccc(Nc2nc(Nc3ccc(N4CCN(C(C)=O)CC4)cc3OC)ncc2C(F)(F)F)c1 [ROCILETINIB] | > 30 µM (inactive) | > 30 µM (inactive) | > 30 µM (inactive) | > 30 µM (inactive) | > 30 µM (inactive) | > 30 µM (inactive) | > 30 µM (inactive) | > 30 µM (inactive)
6 | Cc1cc(C(=O)Nc2cc(Oc3ccc4nc(NC(=O)C5CC5)cn4n3)ccc2C)n(C)n1 [TAK-593] | > 30 µM (inactive) | > 30 µM (inactive) | > 30 µM (inactive) | > 30 µM (inactive) | > 30 µM (inactive) | > 30 µM (inactive) | 0.365 µM (active) | > 30 µM (inactive)
7 | Cn1c(=O)c(F)c(Nc2ccc(I)cc2F)c2c(=O)n(C[C@@H](O)CO)cnc21 [TAK-733] | > 30 µM (inactive) | > 30 µM (inactive) | > 30 µM (inactive) | > 30 µM (inactive) | > 30 µM (inactive) | > 30 µM (inactive) | > 30 µM (inactive) | > 30 µM (inactive)
8 | CNC(=O)c1cc(COc2nnc(Nc3ccc(Cl)cc3)c3ccoc23)ccn1 [TELATINIB] | > 30 µM (inactive) | > 30 µM (inactive) | > 30 µM (inactive) | > 30 µM (inactive) | > 30 µM (inactive) | > 30 µM (inactive) | > 30 µM (inactive) | > 30 µM (inactive)
9 | C[C@@H]1COC(Nc2ccc3ncnc(Nc4ccc(OCc5nccs5)c(Cl)c4)c3c2)=N1 [VARLITINIB] | > 30 µM (inactive) | > 30 µM (inactive) | > 30 µM (inactive) | > 30 µM (inactive) | > 30 µM (inactive) | > 30 µM (inactive) | > 30 µM (inactive) | > 30 µM (inactive)
10 | CNC(=O)c1cccc(-c2ccc3c(N4CCOC[C@@H]4C)nc(N4CCOC[C@@H]4C)nc3n2)c1 [VISTUSERTIB] | > 30 µM (inactive) | > 30 µM (inactive) | > 30 µM (inactive) | > 30 µM (inactive) | > 30 µM (inactive) | > 30 µM (inactive) | > 30 µM (inactive) | > 30 µM (inactive)
11 | NC(=O)c1ccc(N(C(N)=O)c2c(F)cccc2F)nc1-c1ccc(F)cc1F [VX-702] | > 30 µM (inactive) | > 30 µM (inactive) | > 30 µM (inactive) | > 30 µM (inactive) | > 30 µM (inactive) | > 30 µM (inactive) | > 30 µM (inactive) | > 30 µM (inactive)
12 | COc1cc2ncnc(Nc3ccc(O)cc3)c2cc1OC [WHI-P131] | > 30 µM (inactive) | > 30 µM (inactive) | > 30 µM (inactive) | 4.37 µM (active) | > 30 µM (inactive) | > 30 µM (inactive) | > 30 µM (inactive) | > 30 µM (inactive)
